Legend:
HCT-116 [1] = experiment: The compound was evaluated for the cytotoxicity against human colon cancer cell lines(HCT116), activity expressed as IC50 vs IC50 of Paclitaxel.; format: functional
M109 = experiment: The compound was evaluated in vivo for the T/C ratio against M-109 lung carcinoma.; format: functional, Mus musculus
[2] = molecular target: Tubulin alpha chain (Sus scrofa) (UniProt P02550); experiment: The compound was evaluated in vitro in a tubulin polymerization assay, activity expressed as potency of compound relative to Paclitaxel.; format: functional
Chain of Tubulin alpha chain (Sus scrofa) (P02550 whole entry, looked up): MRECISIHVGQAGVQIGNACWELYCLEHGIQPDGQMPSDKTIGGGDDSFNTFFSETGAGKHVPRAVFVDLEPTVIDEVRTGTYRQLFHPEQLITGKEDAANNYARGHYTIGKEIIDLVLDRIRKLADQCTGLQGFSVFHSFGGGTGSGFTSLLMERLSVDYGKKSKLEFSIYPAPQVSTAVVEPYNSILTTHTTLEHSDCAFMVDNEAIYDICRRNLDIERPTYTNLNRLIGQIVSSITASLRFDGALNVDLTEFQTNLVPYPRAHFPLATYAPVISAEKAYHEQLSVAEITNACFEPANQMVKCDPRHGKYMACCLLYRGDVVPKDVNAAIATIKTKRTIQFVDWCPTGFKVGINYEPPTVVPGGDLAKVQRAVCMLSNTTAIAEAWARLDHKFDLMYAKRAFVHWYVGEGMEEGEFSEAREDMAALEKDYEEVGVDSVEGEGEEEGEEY

HCT-116 [3] = experiment: The compound was evaluated in vitro for inhibition of human colon cancer cell line HCT116; format: functional, cell-based

Compound	Ratio (HCT-116 [1])	T/C (M109)	Ratio [2]	IC50 (HCT-116 [3])
CC(=O)O[C@H]1C(=O)[C@@]2(C)[C@H]([C@H](OC(=O)c3ccccc3)[C@]3(O)C[C@H](OC(=O)[C@H](O)[C@@H](NC(=O)c4ccccc4)c4ccccc4)C(C)=C1C3(C)C)[C@]1(OC(C)=O)CO[C@@H]1C[C@@H]2O [PACLITAXEL]	1	166%		
CC(=O)O[C@@]12CO[C@@H]1C[C@H](O)[C@@]1(C)C(=O)[C@H](O)C3=C(C)[C@@H](OC(=O)[C@H](O)[C@@H](OC(=O)NC(C)(C)C)c4ccccc4)C[C@@](O)([C@@H](OC(=O)c4ccccc4)C12)C3(C)C (some centres not stated)	5.1		7.8	10.3 nM
CC(=O)O[C@H]1C(=O)[C@@]2(C)[C@H]([C@H](OC(=O)c3ccccc3)[C@]3(O)C[C@H](OC(=O)[C@H](O)[C@@H](O)c4ccccc4)C(C)=C1C3(C)C)[C@]1(OC(C)=O)CO[C@@H]1C[C@@H]2O	>100		> 100	> 200 nM
CC(=O)O[C@H]1C(=O)[C@@]2(C)[C@H]([C@H](OC(=O)c3ccccc3)[C@]3(O)C[C@H](OC(=O)[C@H](O)[C@@H](OC(=O)NC(C)(C)C)c4ccccc4)C(C)=C1C3(C)C)[C@]1(OC(C)=O)CO[C@@H]1C[C@@H]2O	3.3	166%	1.5	6.6 nM

— ChEMBL document CHEMBL1152107 (Bioorg Med Chem Lett, 1997)
